In article PMC5563081, “Modulating Protein-Protein Interactions of the Mitotic Polo-like Kinases to Target Mutant KRAS” (Cell Chemical Biology, 2017):
Several values for one entry are separate records, joined by “and”; a condition that tells them apart may be missing. Identical values can stand only once. Like-named read-outs stand apart in the source and are kept apart here.

Key:
[1] = Pharmacokinetic study, oral administration in mice; type: in vivo, mouse
Procedure: Mice were dosed orally with 10mg/kg Poloppin-II, and blood samples were taken from 3 mice per time point, and frozen until all samples were available. Plasma was prepared from each sample and Poloppin-II levels analysed by a pre-established methodology (UHPLC-TOF MS using electrospray ionisation).

PBD domain of human PLK2 = target: T1, PBD domain of human PLK2 (Homo sapiens, UniProt Q9NYY3); test: Fluorescence polarisation (FP) assay, PLK2 PBD; type: binding
T1 construct: For FP assays using PLK2 PBD (aa356-681), the same procedure was applied; GST (N, cleaved yes); made in house; host or cells: E. coli C41
T1 sequence (Q9NYY3 356-681): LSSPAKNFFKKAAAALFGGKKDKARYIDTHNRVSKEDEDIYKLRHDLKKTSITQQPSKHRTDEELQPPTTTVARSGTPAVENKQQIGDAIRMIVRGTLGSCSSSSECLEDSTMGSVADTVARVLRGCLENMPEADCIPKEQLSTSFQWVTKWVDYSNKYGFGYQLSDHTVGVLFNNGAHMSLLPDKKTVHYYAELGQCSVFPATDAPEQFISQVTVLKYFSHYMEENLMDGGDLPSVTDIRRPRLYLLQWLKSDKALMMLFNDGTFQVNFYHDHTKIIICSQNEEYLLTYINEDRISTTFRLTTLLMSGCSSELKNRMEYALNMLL
Procedure: Final concentrations of assay components used in binding assays were as follows: TAMRA-labelled consensus PLK1 PBD binding phosphopeptide, 5-TAMRA-MAGPMQS(pThreonine)PLMGAKK-acid 10nM; PLK1 PBD (aa345-603) 84nM (2.5ng/μl). Assays were carried out in PBS (pH 7.4) plus 0.03% tween. DMSO controls were run alongside all experimental compounds and % inhibition normalised to these controls. Compounds were titrated 2 fold from a top concentration of 250μM giving a maximum final concentration of DMSO in the assay of 0.25%; however the assay can tolerate DMSO up to 5%. Compound and PBD protein were incubated together at 22°C for 1 hour prior to addition of the TAMRA labelled binding phosphopeptide. The total assay volume per well was 45μl. All experiments were performed in NBS black 384-well microtiter plates (Corning). Fluorescence Polarisation (FP) was read using a BMG PheraStar plate reader with a 540/590/590nm FP module and unbound 10nm TAMRA-labelled peptide set to a FP value of 35mP.
For FP assays using PLK2 PBD (aa356-681), the same procedure was applied except that TAMRA-MAGPMQTS(pThreonine)PKNGAKK was used as the consensus binding phosphopeptide.

[2] = system: HCT116 (KRAS G13D) xenografts; test: Xenograft study, tumour volume; type: in vivo, mouse; conditions: for Group Mean at Day 15 (tumour volume): HCT116 xenograft, vehicle 778
Procedure: Male athymic mice were purchased from Harlan (UK) and acclimatised for 7 days prior to study commencement. Animals were housed in IVC cages (5 per cage) with individual mice identified by tail marking. All animals were allowed free access to a standard certified commercial diet and sanitised water during the study. The holding room was maintained under standard conditions: 20-24°C, 40-70% humidity and a 12h light/dark cycle. All experiments were performed under approved ethical and procedural guidelines.
Tumours were established by sub-cutaneous implantation of 2 x 10^6 HCT116 cells suspended in 50% Matrigel into the flanks of a cohort of mice. When a sufficient number of mice had developed tumours of approximately 100mm3, they were randomly assigned to three groups: Vehicle, 50mg/kg Poloppin-II or 200mg/kg Poloppin-II, with 10 mice per group. Mice were treated orally according to their treatment group once every three days. Tumour volume was measured three times per week with calipers. Body weight was measured three times per week. In addition to mice assigned to tumour volume efficacy arm of the study, 16 mice with established HCT116 xenografts were assigned to either Vehicle or 200mg/kg oral dosing groups, with 8 mice per group. 24 hours after a single dose, mice were euthanised, tumours removed, snap frozen and 30-50microgram of lysates were analysed by Western blotting on 4-12% Bis-Tris acrylamide gels, and transferred using the Invitrogen iBlot dry system. Phospho-Histone H3 was detected using Abcam antibody ab5176, beta-actin with Sigma antibody a5316. […] HRP was visualised with ECL-Plus (GE Healthcare).

[3] = target: T2, NanoLuc-PLK3 fusion protein (Homo sapiens, UniProt Q9H4B4); test: NanoLuc thermal shift assay; type: cell-based; conditions: compound at 100 μM
T2 construct: NanoLuc fused to the N-termini of full-length human PLK1, PLK2, PLK3, PLK4 or p38α MAPK; expressed in transfected cells; host or cells: HeLa, transient, digitonin-permeabilised
Procedure: (§1) HeLa cells were transfected with plasmids encoding NanoLuc fused to the N-termini of full-length human PLK1, PLK2, PLK3, PLK4 or p38α MAPK. Twenty-four h after transfection, the thermal stability of the fusion proteins was tested using a modified version of the assay protocol supplied by Promega. Briefly, cells were harvested by tyrpsinisation and centrifugation, counted, and resuspended to 200,000 cells/ml in 3mls of serum-free OptiMEM media. Cells were then permeabilised using with 50ug/ml digitonin in DMSO for 5 min and incubated with test compounds at 100uM, plus protease inhibitor cocktail (Promega G6521), in a final concentration of 5% DMSO for 1 h at 37°C. After incubation, 100 μl/well of cells were aliquoted into a 96-well, thin-walled PCR plate and then heated for 3 minutes using a pre-warmed MJ Tetrad DNA Engine set to run a temperature gradient of 42 to 66°C. The plates were then cooled to room temperature for 10 min, and then 80μl of each sample was transferred to a white-walled 96-well Nunc plate before NanoBRET™ NanoGlo Substrate diluted in Opti-MEM was added. NanoLuc enzyme activity was read out within 10 min using a BMG Clariostar plate reader.

[4] = target: T3, NanoLuc-PLK2 fusion protein (Homo sapiens, UniProt Q9NYY3); test: NanoLuc thermal shift assay; type: cell-based; conditions: compound at 100 μM
T3 construct: NanoLuc fused to the N-termini of full-length human PLK1, PLK2, PLK3, PLK4 or p38α MAPK; expressed in transfected cells; host or cells: HeLa, transient, digitonin-permeabilised
Procedure: as §1

human cell lines = test: Dose-dependent mitotic arrest (Figure 1F); type: cell-based
Procedure: Cells were plated at 10 000/well in 96-well plates and incubated overnight. The following day compound stocks in DMSO were diluted in medium then added to cells with a maximum final DMSO concentration on cells of 0.2%. Cells were incubated with compound for 24 h then fixed in 3.7% formaldeyde. Cells were permeabilised with 0.1% Triton X-100 then incubated with anti-phospho-histone H3 (Ser10) antibody (Abcam ab5176). The cells were washed with PBS then incubated with AlexaFluor 488 labelled goat anti-rabbit IgG (Invitrogen A11034) in the presence of 4ug/ml Hoechst 33342 (Invitrogen H3570). Cells were washed in PBS then imaged on an Arrayscan VTi HCS instrument (Thermo Fisher) using the Target Activation V4 Bioapplication. A user-defined threshold was applied to identify mitotic cells based on the intensity of phospho-histone H3 staining.

T3 sequence (Q9NYY3 whole entry, the tested form may be a part): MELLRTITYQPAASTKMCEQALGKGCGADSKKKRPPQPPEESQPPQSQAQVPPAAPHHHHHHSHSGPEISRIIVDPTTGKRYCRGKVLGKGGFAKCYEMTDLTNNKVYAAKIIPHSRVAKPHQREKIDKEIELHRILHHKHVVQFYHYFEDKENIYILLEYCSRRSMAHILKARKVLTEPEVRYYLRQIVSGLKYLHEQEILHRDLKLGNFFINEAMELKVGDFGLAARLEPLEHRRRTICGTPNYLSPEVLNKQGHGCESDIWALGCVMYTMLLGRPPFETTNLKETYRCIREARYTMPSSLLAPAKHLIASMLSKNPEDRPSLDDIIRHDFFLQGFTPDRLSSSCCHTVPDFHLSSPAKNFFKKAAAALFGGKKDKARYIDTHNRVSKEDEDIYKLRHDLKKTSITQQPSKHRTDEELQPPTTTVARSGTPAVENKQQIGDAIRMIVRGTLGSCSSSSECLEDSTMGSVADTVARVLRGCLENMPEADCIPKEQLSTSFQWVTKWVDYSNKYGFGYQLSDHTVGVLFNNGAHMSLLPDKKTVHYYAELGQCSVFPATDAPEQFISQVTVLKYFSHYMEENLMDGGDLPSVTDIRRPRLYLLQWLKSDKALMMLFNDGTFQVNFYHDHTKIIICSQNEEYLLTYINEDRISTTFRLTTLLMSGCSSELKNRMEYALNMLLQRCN
T2 sequence (Q9H4B4 whole entry, the tested form may be a part): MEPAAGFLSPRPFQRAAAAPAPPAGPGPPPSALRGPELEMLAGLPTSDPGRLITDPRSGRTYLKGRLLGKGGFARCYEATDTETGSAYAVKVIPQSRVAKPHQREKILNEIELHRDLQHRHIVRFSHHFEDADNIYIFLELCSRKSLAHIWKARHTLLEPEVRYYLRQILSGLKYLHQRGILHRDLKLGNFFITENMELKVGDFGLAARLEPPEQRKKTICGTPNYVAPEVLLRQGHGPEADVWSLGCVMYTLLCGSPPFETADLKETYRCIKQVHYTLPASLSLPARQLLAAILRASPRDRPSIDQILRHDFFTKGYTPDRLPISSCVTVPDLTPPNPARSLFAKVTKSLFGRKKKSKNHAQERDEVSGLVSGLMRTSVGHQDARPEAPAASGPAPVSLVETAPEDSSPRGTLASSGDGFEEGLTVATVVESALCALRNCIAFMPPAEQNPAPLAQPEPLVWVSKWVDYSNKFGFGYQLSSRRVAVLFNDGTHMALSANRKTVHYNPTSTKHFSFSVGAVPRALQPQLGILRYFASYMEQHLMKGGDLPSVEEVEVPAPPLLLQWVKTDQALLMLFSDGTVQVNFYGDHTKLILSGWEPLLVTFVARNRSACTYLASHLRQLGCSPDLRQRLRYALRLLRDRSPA

CN(C)CCNC(=O)c1ccc(-c2ccc(-c3ccc(Cl)cc3)n2-c2ccccc2C(F)(F)F)cc1 [Poloppin-II]
bioavailability ([1]; mouse, plasma, 10 mg/kg oral): > 90% | clearance ([1]; mouse, plasma, oral, 10 mg/kg, read-out: calculated clearance): 1.02 L/h/kg | Vd ([1]; mouse, plasma, oral, 10 mg/kg, read-out: volume of distribution): 23 L/kg | half-life ([1]; mouse, plasma, per oral, 10 mg/kg): 15 h | time for which plasma concentration >100 nM is maintained ([1]; single oral dose of 10 mg/kg): > 24 h | in vivo plasma concentration maintained ([1]; single oral dose of 10 mg/kg, for >24 hr): > 100 nM | IC50 (PBD domain of human PLK2; read-out: IC50, binding of TAMRA-labelled phosphopeptide to PLK2 PBD): 105 µM | growth of xenografted tumors ([2]; 50 mg/kg oral, HCT116 KRAS G13D): reduced the growth of xenografted tumors | Group Mean at Day 15 (tumour volume) ([2]; 50mg/kg oral every three days): 415 mm³ | Group Mean at Day 15 (tumour volume) ([2]; 200mg/kg oral, treatment suspended after seven days): 371 mm³

O=C(O)CCc1ccc(-c2ccc(Br)cc2)n1-c1ccccc1C(F)(F)F [Poloppin]
thermal stability of NanoLuc-PLK3 [3]: increases the thermal stability | thermal stability of NanoLuc-PLK2 [4]: increases the thermal stability | EC50 (human cell lines): 29.9 ± 1.12 µM | selectivity for PLK1-PBD over PLK2-PBD (PBD domain of human PLK2): ~3 fold | IC50 (PBD domain of human PLK2; IC50, binding of TAMRA-labelled phosphopeptide to PLK2 PBD): 88.3 µM and 88 µM
